The record followed here is patent publication US7999137B2, “Pesticide bi-phenyl-amidine derivatives” (Bayer Cropscience AG, priority 2006, dated 2011).

The series can be described thus: logP by HPLC on reversed-phase column (C 18), EEC Directive 79/831 Annex V.A8. It is filed as physicochemical. Conditions: 40° C., 0.1% aqueous formic acid and acetonitrile; for log p (HCOOH): HPLC reversed-phase C 18, linear gradient 10% to 90% acetonitrile; for chromatographic logP: reversed-phase HPLC column (C 18), pH 2.3, HPLC, read-out: log P (pH 2.3). The protocol: Temperature: 40° C.; Mobile phases: 0.1% aqueous formic acid and acetonitrile; linear gradient from 10% acetonitrile to 90% acetonitrile.
Calibration was carried out using unbranched alkan-2-ones (comprising 3 to 16 carbon atoms) with known logP values (determination of the logP values by the retention times using linear interpolation between two successive alkanones).

For `CCN(C)C=Nc1cc(C)c(-c2ccc(C(C)(C)C)cc2)cc1Cl` [Compound 106], the “log p (HCOOH)” value is given as 2.71. Still for that read-out and setting: for `CCN(C)C=Nc1cc(C)c(-c2ccc(Cl)c(Cl)c2)cc1C` [Compound 44] the value was 2.27; for `CCN(C)C=Nc1ccc(-c2ccc(C(C)=NOC)cc2)cc1Cl` [Compound 65], 2.00; for `CCN(C)C=Nc1cc(C)c(-c2ccc(Cl)cc2C)cc1C` [Compound 112], 2.24. On the same count and under the same terms, for `CCN(C)C=Nc1cc(C)c(-c2ccc(C3CCCC3)cc2)cc1C` [Compound 167] the value was 2.94; for `CCN(C)C=Nc1cc(C)c(-c2ccc(OC)c(C)c2)cc1C` [Compound 114], 2.05. On to `CCN(C)C=Nc1ccc(-c2ccc(C(C)=NOC)cc2)cc1C` [Compound 31], for which the “log p (HCOOH)” value is 2.02. Turning to `CCN(C)C=Nc1ccc(-c2ccc(F)cc2)cc1Cl` [Compound 13], the “log p (HCOOH)” value was 1.69.

As to `Cc1cc(-c2ccc(C(C)(C)C)cc2)c(C)cc1N=CN1CCCCC1C` (stereo not shown) [Compound 117], the “log p (HCOOH)” value came to 3.02. Consider `CCc1cc(-c2ccc(OC)cc2)ccc1N=CN(C)CC` [Compound 58], for which the “log p (HCOOH)” value is 1.90.

Turning to `CCc1cc(-c2ccc(C=NOC)cc2)ccc1N=CN(C)CC` [Compound 51], the “log p (HCOOH)” value was 2.09. Same read-out and setting: the figure for `CCN(C)C=Nc1ccc(-c2cccc(Cl)c2)c(Cl)c1` [Compound 96] is 1.92; for `Cc1cc(-c2ccc(F)cc2)c(C)cc1N=C1NCCCN1` [Compound 123] it is 1.81.

For the compound `Cc1cc(-c2ccc(F)cc2)c(C)cc1N=C1NCCN1` [Compound 124], the “log p (HCOOH)” value was 1.72. Turning to `CCN(C)C=Nc1ccc(-c2ccc(OC)c(C)c2)cc1Cl` [Compound 115], the “log p (HCOOH)” value was 1.86. Take `CCN(C)C=Nc1cc(C)c(-c2ccc(S(=O)(=O)C(F)(F)F)cc2)cc1C` [Compound 174]: the “log p (HCOOH)” value stood at 2.21. The same measure, in the same setting: the figure for `Cc1cc(-c2ccc(C(C)(C)C)cc2)c(C)cc1N=CN(C)C(C)C` [Compound 161] is 2.77.

On to `C=CCN(C)C=Nc1cc(C)c(-c2ccc([Si](C)(C)C)cc2)cc1C` [Compound 153], for which the “log p (HCOOH)” value worked out at 3.08.

For the compound `CCN(C)C=Nc1ccc(-c2ccc(COC)cc2)cc1C(F)(F)F` [Compound 93], the “log p (HCOOH)” value was 1.76. Take `CCN(C)C=Nc1ccc(-c2ccc(OC)c(OC)c2)cc1C(F)(F)F` [Compound 94]: the “log p (HCOOH)” value amounted to 1.71. Consider `CCN(C)/C=N/c1cc(C)c(Br)cc1C` [Intermediate (Va-1), N′-(4-bromo-2,5-dimethylphenyl)-N-ethyl-N-methylimidoformamide], for which the chromatographic logP was found to be 1.36. As for `CCC(C)c1ccc(-c2cc(C)c(N=CN(C)CC)cc2C)cc1` (stereo not shown) [Compound 163], the “log p (HCOOH)” value was 2.92. Still for that read-out and setting: for `CCN(C)C=Nc1ccc(-c2ccc(OC)c(OC)c2)cc1Cl` [Compound 74] the value was 1.54; for `CCN(C)C=Nc1ccc(-c2ccc(OCc3ccccc3)cc2)cc1Cl` [Compound 72], 2.48. Still for that read-out and setting: for `CCN(C)C=Nc1cc(C)c(-c2ccc(OC(C)C)c(Cl)c2)cc1C` [Compound 171] the value was 2.62. Still for that read-out and setting: for `CCc1cc(-c2ccc(F)c(C)c2)ccc1N=CN(C)CC` [Compound 55] the value was 1.98. Consider `CCN(C)C=Nc1ccc(-c2ccc(Cl)c(Cl)c2)cc1Cl` [Compound 66], for which the “log p (HCOOH)” value came to 2.25. Still for that read-out and setting: the figure for `CCN(C)C=Nc1cc(C)c(-c2ccccc2)cc1C` [Compound 134] is 1.77. Regarding `CCN(C)C=Nc1ccc(-c2ccc(F)c(C)c2)cc1Cl` [Compound 67], the “log p (HCOOH)” value is 2.10.

Regarding `CCN(C)C=Nc1ccc(-c2ccc(Cl)c(C(F)(F)F)c2)cc1F` [Compound 20], the “log p (HCOOH)” value came to 2.15. As to `CCN(C)C=Nc1cc(C)c(-c2cccc([Si](C)(C)C)c2)cc1C` [Compound 179], the “log p (HCOOH)” value is reported as 3.00. The same measure, in the same setting: for `Cc1cc(-c2ccc(C(C)(C)C)cc2)ccc1N=C1CCCCN1` [Compound 138] the value was 2.45; for `CCCN(C)C=Nc1cc(C)c(-c2ccc([Si](C)(C)C)cc2)cc1C` [Compound 152], 3.10. In the case of `CCN(C)C=Nc1ccc(-c2ccc(Oc3ccccc3)cc2)cc1C(F)(F)F` [Compound 89], the “log p (HCOOH)” value was 2.65. Regarding `C=CCN(C)C=Nc1cc(C)c(-c2ccc(C)c(Cl)c2)cc1C` [Compound 148], the “log p (HCOOH)” value is reported as 2.48. On the same count and under the same terms, for `CCN(C)C=Nc1cc(C)c(-c2ccc(F)c(F)c2)cc1C` [Compound 46] the value was 1.98. Still for that read-out and setting: for `CCc1cc(-c2ccc(COC)cc2)ccc1N=CN(C)CC` [Compound 61] the value was 1.67; for `CCN(C)C=Nc1cc(C)c(-c2ccc([Si](C)(C)C)cc2)cc1C` [Compound 151], 2.98; for `C=CCN(C)C=Nc1cc(C)c(-c2ccc(C(F)(F)F)c(Cl)c2)cc1C` [Compound 144], 2.70.

Turning to `CCN(C)C=Nc1ccc(-c2ccc(F)c(F)c2F)cc1C(F)(F)F` [Compound 79], the “log p (HCOOH)” value came to 2.29. Still for that read-out and setting: the figure for `CCN(C)C=Nc1ccc(-c2ccc(C(C)(C)C)cc2)cc1C(F)(F)F` [Compound 2] is 2.83; for `CCN(C)C(C)=Nc1cc(C)c(-c2ccc(C(C)(C)C)cc2)cc1C` [Compound 176] it is 2.77. With `Cc1cc(-c2ccc(Cl)cc2)c(C)cc1N=C1NCCCN1` [Compound 122], the “log p (HCOOH)” value stood at 2.08. Consider `Cc1cc(-c2ccc(C(C)C)cc2)c(C)cc1N=CN1CCCCC1` [Compound 158], for which the “log p (HCOOH)” value worked out at 2.60. Same read-out and setting: the figure for `CCc1cc(-c2ccc(Cl)c(C(F)(F)F)c2)ccc1N=CN(C)CC` [Compound 21] is 2.39; for `CCN(C)C=Nc1cc(C)c(-c2ccc(C=NOC)cc2)cc1C` [Compound 40] it is 2.05; for `CCN(C)C=Nc1ccc(-c2ccc(OC)c(OC)c2)cc1C` [Compound 38] it is 1.49. On the same count and under the same terms, the figure for `CCN(C)C=Nc1ccc(-c2ccc(F)cc2)cc1F` [Compound 15] is 1.50; for `CCN(C)C=Nc1ccc(-c2ccc(F)c(F)c2)cc1C(F)(F)F` [Compound 83] it is 2.09.

Consider `CCN(C)C=Nc1ccc(-c2ccc(Cl)c(C)c2)cc1C` [Compound 108], for which the “log p (HCOOH)” value is reported as 2.14. Same read-out and setting: for `CCN(C)C=Nc1ccc(-c2ccc(C=NOC)cc2)cc1C` [Compound 30] the value was 1.94. In the case of `CCN(C)C=Nc1ccc(-c2ccc(C=NOC)cc2)cc1Cl` [Compound 64], the “log p (HCOOH)” value came to 1.87. Regarding `CCN(C)C=Nc1cc(C)c(-c2ccc(S(=O)(=O)N(C)C)cc2)cc1C` [Compound 173], the “log p (HCOOH)” value turned out to be 1.76. The same measure, in the same setting: the figure for `CCN(C)C=Nc1ccc(-c2ccc(COC)cc2)cc1Cl` [Compound 73] is 1.65; for `CCCN(C)C=Nc1cc(C)c(-c2ccc(C(F)(F)F)c(Cl)c2)cc1C` [Compound 143] it is 2.69; for `CCN(C)C=Nc1cc(C)c(-c2ccc(OC(C)(C)C)cc2)cc1C` [Compound 160] it is 2.28. On the same count and under the same terms, for `CCN(C)C=Nc1ccc(-c2cc(OC)c(OC)c(OC)c2)cc1Cl` [Compound 63] the value was 1.58. As for `CCN(C)C=Nc1ccc(-c2ccc(F)c(F)c2)cc1Cl` [Compound 68], the “log p (HCOOH)” value is listed as 1.83. The same measure, in the same setting: the figure for `CCc1cc(-c2ccc(F)c(F)c2)ccc1N=CN(C)CC` [Compound 56] is 2.00; for `CCN(C)C=Nc1ccc(-c2ccc(OC)c(OC)c2OC)cc1F` [Compound 12] it is 1.50; for `CCN(C)C=Nc1cc(C)c(-c2ccc(F)c(Cl)c2)cc1C` [Compound 137] it is 2.02.

Take `CCN(C)C=Nc1ccc(-c2ccc(Oc3ccccc3)cc2)cc1Cl` [Compound 71]: the “log p (HCOOH)” value amounted to 2.45. For `C=CCN(C)C=Nc1cc(C)c(-c2ccc(C(C)C)cc2)cc1C` [Compound 157], the “log p (HCOOH)” value worked out at 2.60. As for `CCN(C)C=Nc1ccc(-c2ccc(OC)cc2)cc1Cl` [Compound 70], the “log p (HCOOH)” value is 1.71. Still for that read-out and setting: the figure for `CCN(C)C=Nc1ccc(-c2ccc(Cl)c(C(F)(F)F)c2)cc1C` [Compound 16] is 2.28; for `CCN(C)C=Nc1cc(C)c(-c2ccc(Cl)c(C)c2)cc1C` [Compound 109] it is 2.27. `Cc1cc(-c2ccc([Si](C)(C)C)cc2)c(C)cc1N=CN1CCCCC1` [Compound 154]: the “log p (HCOOH)” value was found to be 3.16. The same measure, in the same setting: the figure for `CCN(C)C=Nc1cc(C)c(-c2ccc(OC(C)C)c(F)c2)cc1C` [Compound 172] is 2.37.

Regarding `CCc1cc(-c2ccc(C(F)(F)F)cc2)ccc1N=CN(C)CC` [Compound 27], the “log p (HCOOH)” value was 2.20. As to `CCN(C)C=Nc1cc(C)c(-c2ccc(C(C)(C)C)c(Cl)c2)cc1C` [Compound 168], the “log p (HCOOH)” value is on record as 2.85.

Regarding `CCN(C)C=Nc1cc(C)c(-c2ccc(C(F)(F)F)cc2)cc1C` [Compound 132], the “log p (HCOOH)” value was 2.19.

On to `Cc1cc(-c2ccc(C(C)(C)C)cc2)c(C)cc1N` [Intermediate (VII-1), 4′-tert-butyl-2,5-dimethylbiphenyl-4-amine], for which the chromatographic logP worked out at 3.65.

Take `CCN(C)C=Nc1cc(C)c(-c2ccc(COC)cc2)cc1C` [Compound 49]: the “log p (HCOOH)” value was 1.76. Turning to `Cc1cc(-c2ccc(C(C)(C)C)cc2)c(C)cc1N=CN1CCCCC1` [Compound 116], the “log p (HCOOH)” value came to 2.69.

For the compound `CCON=C(C)c1ccc(-c2cc(C)c(N=CN(C)CC)cc2C)cc1` [Compound 139], the “log p (HCOOH)” value is on record as 2.55. The same measure, in the same setting: for `CCN(C)C=Nc1ccc(-c2ccc(C=NOC)cc2)cc1C(F)(F)F` [Compound 76] the value was 2.01.
